Legend:
Format in all cases: cell-based
hGPR17L-R248Q [1] = target: T1, hGPR17L-R248Q (Homo sapiens, UniProt Q13304, R248Q); assay: GloSensor stimulatory cAMP assay with pertussis toxin pretreatment
T1 construct: expressed in transfected cells; host or cells: HEK293 (ATCC CRL-1573), transient transfection
Method: (§1) For agonist-mediated stimulatory cAMP assays, HEK293 cells were seeded and transfected as noted above. Cells were treated with 100 ng/ml pertussis toxin overnight (Sigma-Aldrich P2980). Twenty-four hours posttransfection, growth medium and transfection mix were aspirated and replaced with 100 μl/well equilibration medium (2% Promega GloSensor cAMP reagent [E1291; Promega Corporation] in CO2-independent medium) containing 100 ng/ml pertussis toxin and incubated at room temperature for 2 h. Baseline luminescence was read every 2 min on a Molecular Devices SpectraMax iD5 plate reader (Molecular Devices) at ambient room temperature for 8 min. Subsequently, 10 μl/well MDL29,951 diluted in assay buffer (HBSS, 20 mM HEPES, pH 7.2) was added and luminescence was read every 2 min for 16 min. Within each well, the luminescence values for each time point were normalized to their average baseline luminescence values. The average luminescence values for the time points between 8 and 16 min after MDL29,951 addition were expressed as a percentage of the maximum response observed for hGPR17L-WT.

hGPR17L-G354V [2] = target: T2, hGPR17L-G354V (Homo sapiens, UniProt Q13304, G354V); assay: as above
T2 construct: expressed in transfected cells; host or cells: HEK293 (ATCC CRL-1573)
T2 sequence (Q13304 whole entry G354V): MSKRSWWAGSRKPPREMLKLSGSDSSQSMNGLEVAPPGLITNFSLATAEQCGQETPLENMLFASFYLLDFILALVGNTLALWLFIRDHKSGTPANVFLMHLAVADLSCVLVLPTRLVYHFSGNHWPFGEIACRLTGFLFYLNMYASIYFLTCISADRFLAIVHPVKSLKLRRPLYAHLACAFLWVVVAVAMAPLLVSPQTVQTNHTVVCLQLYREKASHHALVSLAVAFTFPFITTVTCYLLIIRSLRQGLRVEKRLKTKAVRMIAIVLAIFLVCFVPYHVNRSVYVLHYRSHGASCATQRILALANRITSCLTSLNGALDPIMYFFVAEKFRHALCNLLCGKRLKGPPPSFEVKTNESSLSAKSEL
Method: as §1

hGPR17L-F43L = target: T3, hGPR17L-F43L (Homo sapiens, UniProt Q13304, F43L); assay: as above
T3 construct: expressed in transfected cells; host or cells: HEK293 (ATCC CRL-1573), transient transfection
T3 sequence (Q13304 whole entry F43L): as the sequence (Q13304 whole entry G354V) above, with F43L, V354G counted along it
Method: as §1

hGPR17L-R301H = target: T4, hGPR17L-R301H (Homo sapiens, UniProt Q13304, R301H); assay: as above
T4 construct: expressed in transfected cells; host or cells: HEK293 (ATCC CRL-1573)
T4 sequence (Q13304 whole entry R301H): as the sequence (Q13304 whole entry G354V) above, with R301H, V354G counted along it
Method: as §1

hGPR17L-V103M = target: T5, hGPR17L-V103M (Homo sapiens, UniProt Q13304, V103M); assay: as above
T5 construct: expressed in transfected cells; host or cells: HEK293 (ATCC CRL-1573), transient transfection
T5 sequence (Q13304 whole entry V103M): as the sequence (Q13304 whole entry G354V) above, with V103M, V354G counted along it
Method: as §1

hGPR17L-R248Q [3] = target: T1, hGPR17L-R248Q; assay: GloSensor cAMP assay, inhibition of forskolin-stimulated cAMP
Method: (§2) HEK293 cells were seeded at 20,000 cells/well into white, opaque 96-well plates. The next day, cells were transiently cotransfected with pGloSensor-cAMP-22F and pcDNA3-HA-hGPR17L or pcDNA3-HA-hGPR17L-variants using lipofectamine 3000. Twenty-four hours posttransfection, growth medium and transfection mix were aspirated and replaced with 100 μl/well equilibration medium (2% Promega GloSensor cAMP reagent [E1291; Promega Corporation] in CO2-independent medium) and incubated at room temperature for 2 h. Baseline luminescence was read on a Molecular Devices SpectraMax iD5 plate reader (Molecular Devices) at ambient room temperature for 8 min. Subsequently, 10 μl/well MDL29,951 diluted in assay buffer (HBSS, 20 mM HEPES, pH 7.2) was added and luminescence was read for 10 min. Finally, 10 μl/well forskolin (1099; Tocris Bioscience) diluted in assay buffer was added and luminescence was measured for 20–30 min. The average luminescence value for the 14–20 min time points for each well was normalized to their average baseline luminescence value and expressed as a percentage of the forskolin-stimulated response within each transfection condition.

hGPR17L-WT = target: T6, hGPR17L-WT (Homo sapiens, UniProt Q13304); assay: as above
T6 construct: expressed in transfected cells; host or cells: HEK293 (ATCC CRL-1573), transient transfection of pcDNA3-HA-hGPR17L
T6 sequence (Q13304 whole entry): as the sequence (Q13304 whole entry G354V) above, with V354G counted along it
Method: as §2

hGPR17L-A131T = target: T7, hGPR17L-A131T (Homo sapiens, UniProt Q13304, A131T); assay: as above
T7 construct: expressed in transfected cells; host or cells: HEK293 (ATCC CRL-1573), transient transfection
T7 sequence (Q13304 whole entry A131T): as the sequence (Q13304 whole entry G354V) above, with A131T, V354G counted along it
Method: as §2

hGPR17L-G354V [4] = target: T2, hGPR17L-G354V; assay: as above
Method: as §2

[5] = read-out: Stimulatory cAMP EC50
[6] = HEK293, inhibition of 3 μM forskolin-stimulated cAMP
[7] = read-out: cAMP IC50, HEK293, inhibition of 3 μM forskolin-stimulated cAMP

T1 sequence (Q13304 whole entry R248Q): as the sequence (Q13304 whole entry G354V) above, with R248Q, V354G counted along it

**Q.** Which results are given for `O=C(O)CCc1c(C(=O)O)[nH]c2cc(Cl)cc(Cl)c12` [MDL29,951]?
**A.** Stimulatory cAMP pEC50 ± SEM (hGPR17L-R248Q [1]): 5.22 ± 0.01; Stimulatory cAMP Efficacy (% of WT Emax) (hGPR17L-R248Q [1]; hGPR17L-R248Q, HEK293, 100 ng/ml pertussis toxin overnight): 41 ± 1.7 % of WT Emax; EC50 (hGPR17L-R248Q [1]; [5]): 6.1 µM; Stimulatory cAMP pEC50 ± SEM (hGPR17L-G354V [2]): 4.88 ± 0.12; Stimulatory cAMP Efficacy (% of WT Emax) (hGPR17L-G354V [2]; hGPR17L-G354V, HEK293, 100 ng/ml pertussis toxin overnight): 105 ± 23 % of WT Emax; EC50 (hGPR17L-G354V [2]; [5]): 14 µM; Stimulatory cAMP pEC50 ± SEM (hGPR17L-F43L): 5.21 ± 0.13; Stimulatory cAMP Efficacy (% of WT Emax) (hGPR17L-F43L; hGPR17L-F43L, HEK293, 100 ng/ml pertussis toxin overnight): 99 ± 20 % of WT Emax; EC50 (hGPR17L-F43L; [5]): 6.2 µM; Stimulatory cAMP pEC50 ± SEM (hGPR17L-R301H): 4.84 ± 0.12; Stimulatory cAMP Efficacy (% of WT Emax) (hGPR17L-R301H; hGPR17L-R301H, HEK293, 100 ng/ml pertussis toxin overnight): 68 ± 11 % of WT Emax; EC50 (hGPR17L-R301H; [5]): 16 µM; Stimulatory cAMP pEC50 ± SEM (hGPR17L-V103M): 4.33 ± 0.36; loss of potency, fold shift in EC50 vs hGPR17L-WT (stimulatory cAMP) (hGPR17L-V103M): 3–7 fold; Stimulatory cAMP Efficacy (% of WT Emax) (hGPR17L-V103M; hGPR17L-V103M, HEK293, 100 ng/ml pertussis toxin overnight): 150 ± 48 % of WT Emax; EC50 (hGPR17L-V103M; [5]): 47 µM; cAMP Efficacy (% inhibition) (hGPR17L-R248Q [3]; HEK293, 3 μM forskolin): 41 ± 3.9 % inhibition; cAMP 10 μM MDL +3 μM FSK (% of FSK) (hGPR17L-R248Q [3]; HEK293, 10 μM MDL29,951): 84 ± 5.5 % of FSK; cAMP 100 μM MDL +3 μM FSK (% of FSK) (hGPR17L-R248Q [3]; HEK293, 100 μM MDL29,951): 98 ± 6.7 % of FSK; cAMP pIC50 ± SEM (hGPR17L-R248Q [3]; [6]): 8.73 ± 2.2; IC50 (hGPR17L-R248Q [3]; [7]): 0.0019 µM; cAMP Efficacy (% inhibition) (hGPR17L-WT; HEK293, 3 μM forskolin): 47 ± 2.5 % inhibition; cAMP 10 μM MDL +3 μM FSK (% of FSK) (hGPR17L-WT; HEK293, 10 μM MDL29,951): 92 ± 4.4 % of FSK; cAMP 100 μM MDL +3 μM FSK (% of FSK) (hGPR17L-WT; HEK293, 100 μM MDL29,951): 115 ± 6.1 % of FSK; cAMP pIC50 ± SEM (hGPR17L-WT; [6]): 8.52 ± 0.13; IC50 (hGPR17L-WT; [7]): 0.003 µM; cAMP Efficacy (% inhibition) (hGPR17L-A131T; HEK293, 3 μM forskolin): 44 ± 4.5 % inhibition; cAMP 10 μM MDL +3 μM FSK (% of FSK) (hGPR17L-A131T; HEK293, 10 μM MDL29,951): 77 ± 3.5 % of FSK; cAMP 100 μM MDL +3 μM FSK (% of FSK) (hGPR17L-A131T; HEK293, 100 μM MDL29,951): 109 ± 5.3 % of FSK; cAMP pIC50 ± SEM (hGPR17L-A131T; [6]): 8.31 ± 0.13; IC50 (hGPR17L-A131T; [7]): 0.0049 µM; cAMP Efficacy (% inhibition) (hGPR17L-G354V [4]; HEK293, 3 μM forskolin): 42 ± 6.7 % inhibition; cAMP 10 μM MDL +3 μM FSK (% of FSK) (hGPR17L-G354V [4]; HEK293, 10 μM MDL29,951): 91 ± 13 % of FSK; cAMP 100 μM MDL +3 μM FSK (% of FSK) (hGPR17L-G354V [4]; HEK293, 100 μM MDL29,951): 113 ± 10 % of FSK

— paper PMC8267566, “Human GPR17 missense variants identified in metabolic disease patients have distinct downstream signaling profiles” (The Journal of Biological Chemistry, 2021)
